Test results from patent publication US20210139467A1 (GLAXOSMITHKLINE INTELLECTUAL PROPERTY DEVELOPMENT LIMITED, priority 2017, published 2021).

Target: IDO1 (Homo sapiens, UniProt P14902)
Assay: IDO1 PBMC RapidFire MS Assay
Type: cell-based
Parameters: stimulated with human interferon-γ (IFN-γ); host or cells: human PBMC stimulated with IFN-gamma and LPS
Conditions: human PBMC stimulated with IFN-γ and LPS; kynurenine detected by mass spectrometry; 2 days; read-out: IDO1 PBMC pIC50 (converted)
Method: IDO1 PBMC RapidFire MS Assay
Compounds of the present invention were tested via high-throughput cellular assays utilizing detection of kynurenine via mass spectrometry and cytotoxicity as end-points. For the mass spectrometry and cytotoxicity assays, human peripheral blood mononuclear cells (PBMC) (PB003F; AllCells®, Alameda, Calif.) were stimulated with human interferon-γ (IFN-γ) (Sigma-Aldrich Corporation, St. Louis, Mo.) and lipopolysaccharide from Salmonella minnesota (LPS) (Invivogen, San Diego, Calif.) to induce the expression of indoleamine 2, 3-dioxygenase (IDO1). Compounds with IDO1 inhibitory properties decreased the amount of kynurenine produced by the cells via the tryptophan catabolic pathway. Cellular toxicity due to the effect of compound treatment was measured using CellTiter-Glo® reagent (CTG) (Promega Corporation, Madison, Wis.), which is based on luminescent detection of ATP, an indicator of metabolically active cells.
In preparation for the assays, test compounds were serially diluted 3-fold in DMSO from a typical top concentration of 1 mM or 5 mM and plated at 0.5 μL in 384-well, polystyrene, clear bottom, tissue culture treated plates with lids (Greiner Bio-One, Kremsmünster, Austria) to generate 11-point dose response curves. Low control wells (0% kynurenine or 100% cytotoxicity) contained either 0.5 μL of DMSO in the presence of unstimulated (−IFN-γ/-LPS) PBMCs for the mass spectrometry assay or 0.5 μL of DMSO in the absence of cells for the cytotoxicity assay, and high control wells (100% kynurenine or 0% cytotoxicity) contained 0.5 μL of DMSO in the presence of stimulated (+IFN-γ/+LPS) PBMCs for both the mass spectrometry and cytotoxicity assays.
Frozen stocks of PBMCs were washed and recovered in RPMI 1640 medium (Thermo Fisher Scientific, Inc., Waltham, Mass.) supplemented with 10% v/v heat-inactivated fetal bovine serum (FBS) (Thermo Fisher Scientific, Inc., Waltham, Mass.), and 1× penicillin-streptomycin antibiotic solution (Thermo Fisher Scientific, Inc., Waltham, Mass.). The cells were diluted to 1,000,000 cells/mL in the supplemented RPMI 1640 medium. 50 μL of either the cell suspension, for the mass spectrometry assay, or medium alone, for the cytotoxicity assay, were added to the low control wells, on the previously prepared 384-well compound plates, resulting in 50,000 cells/well or 0 cells/well respectively. IFN-γ and LPS were added to the remaining cell suspension at final concentrations of 100 ng/ml and 50 ng/ml respectively, and 50 μL of the stimulated cells were added to all remaining wells on the 384-well compound plates. The plates, with lids, were then placed in a 37° C., 5% CO2 humidified incubator for 2 days.
Following incubation, the 384-well plates were removed from the incubator and allowed to equilibrate to room temperature for 30 minutes. For the cytotoxicity assay, CellTiter-Glo® was prepared according to the manufacturer's instructions, and 40 μL were added to each plate well. After a twenty minute incubation at room temperature, luminescence was read on an EnVision® Multilabel Reader (PerkinElmer Inc., Waltham, Mass.). For the mass spectrometry assay, 10 μL of supernatant from each well of the compound-treated plates were added to 40 μL of acetonitrile, containing 10 μM of an internal standard for normalization, in 384-well, polypropylene, V-bottom plates (Greiner Bio-One, Kremsmünster, Austria) to extract the organic analytes. Following centrifugation at 2000 rpm for 10 minutes, 10 μL from each well of the acetonitrile extraction plates were added to 90 μL of sterile, distilled H2O in 384-well, polypropylene, V-bottom plates for analysis of kynurenine and the internal standard on the RapidFire 300 (Agilent Technologies, Santa Clara, Calif.) and 4000 QTRAP MS (SCIEX, Framingham, Mass.). MS data were integrated using Agilent Technologies' RapidFire Integrator software, and data were normalized for analysis as a ratio of kynurenine to the internal standard. […]

Chain of IDO1 (P14902 whole entry): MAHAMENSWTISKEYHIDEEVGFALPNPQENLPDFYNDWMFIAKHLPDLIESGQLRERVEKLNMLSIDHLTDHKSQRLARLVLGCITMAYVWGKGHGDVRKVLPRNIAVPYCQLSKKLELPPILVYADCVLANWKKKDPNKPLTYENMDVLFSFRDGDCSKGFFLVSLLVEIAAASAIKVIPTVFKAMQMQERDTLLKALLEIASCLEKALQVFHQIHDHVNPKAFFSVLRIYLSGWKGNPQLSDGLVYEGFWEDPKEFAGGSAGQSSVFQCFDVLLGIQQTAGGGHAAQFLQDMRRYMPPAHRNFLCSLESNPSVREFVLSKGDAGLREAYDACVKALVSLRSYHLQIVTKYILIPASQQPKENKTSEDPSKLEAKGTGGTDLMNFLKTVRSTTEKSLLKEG

| SMILES | IC50 [nM] |
| --- | --- |
| CC(C)CN(c1ccc(C2(C(=O)NS(C)(=O)=O)CC2)cc1Nc1ccc(Cl)cn1)C1CCOCC1 [Example 4, 1-(3-((5-chloropyridin-2-yl)amino)-4-(isobutyl(tetrahydro-2H-pyran-4-yl)amino)phenyl)-N-(methylsulfonyl)cyclopropane-1-carboxamide] | 0.794 |
| CC(C)CN(c1ccc(C(C)(C)C(=O)NS(C)(=O)=O)cc1Nc1ccc(Cl)cn1)C1CCOCC1 [Example 2, 2-(3-((5-chloropyridin-2-yl)amino)-4-(isobutyl(tetrahydro-2H-pyran-4-yl)amino)phenyl)-2-methyl-N-(methylsulfonyl)propanamide] | 1.58 |
| CC(C)CN(c1ccc(C2(C(=O)O)CC2)cc1Nc1ccc(Cl)cn1)C1CCOCC1 [Example 5, 1-(3-((5-chloropyridin-2-yl)amino)-4-(isobutyl(tetrahydro-2H-pyran-4-yl)amino)phenyl)cyclopropane-1-carboxylic acid] | 6.31 |
| CC(C)CN(c1ncc(C2(C(=O)NS(C)(=O)=O)CC2)cc1Nc1ccc(Cl)cn1)C1CCOCC1 [Example 10, 1-(5-((5-chloropyridin-2-yl)amino)-6-(isobutyl(tetrahydro-2H-pyran-4-yl)amino)pyridin-3-yl)-N-(methylsulfonyl)cyclopropane-1-carboxamide] | 5.01 |
| CC(C)CN(c1ccc(C(C)(C)C(=O)O)cc1Nc1ccc(Cl)cn1)C1CCOCC1 [Example 1, 2-(3-((5-chloropyridin-2-yl)amino)-4-(isobutyl(tetrahydro-2H-pyran-4-yl)amino)phenyl)-2-methylpropanoic acid] | 3.16 |
| CC(C)CN(c1ncc(C(C)(C)C(=O)O)cc1Nc1ccc(Cl)cn1)C1CCOCC1 [Example 6, 2-(5-((5-chloropyridin-2-yl)amino)-6-(isobutyl(tetrahydro-2H-pyran-4-yl)amino)pyridin-3-yl)-2-methylpropanoic acid] | 6.31 |
| CC(C)CN(c1ncc(C(C)(C)C(=O)NS(C)(=O)=O)cc1Nc1ccc(Cl)cn1)C1CCOCC1 [Example 7, 2-(5-((5-chloropyridin-2-yl)amino)-6-(isobutyl(tetrahydro-2H-pyran-4-yl)amino)pyridin-3-yl)-2-methyl-N-(methylsulfonyl)propanamide] | 5.01 |
| CC(C)CN(c1ncc(C2(C(=O)O)CC2)cc1Nc1ccc(Cl)cn1)C1CCOCC1 [Example 9, 1-(5-((5-chloropyridin-2-yl)amino)-6-(isobutyl(tetrahydro-2H-pyran-4-yl)amino)pyridin-3-yl)cyclopropane-1-carboxylic acid] | 7.94 |
| CC(C)CN(c1ncc(C(C)(C)C(=O)NS(=O)(=O)C(F)(F)F)cc1Nc1ccc(Cl)cn1)C1CCOCC1 [Example 8, 2-(5-((5-chloropyridin-2-yl)amino)-6-(isobutyl(tetrahydro-2H-pyran-4-yl)amino)pyridin-3-yl)-2-methyl-N-((trifluoromethyl)sulfonyl)propanamide] | 20 |
| CC(C)CN(c1ccc(C(C)(C)C(=O)NS(=O)(=O)C(F)(F)F)cc1Nc1ccc(Cl)cn1)C1CCOCC1 [Example 3, 2-(3-((5-chloropyridin-2-yl)amino)-4-(isobutyl(tetrahydro-2H-pyran-4-yl)amino)phenyl)-2-methyl-N-((trifluoromethyl)sulfonyl)propanamide] | 20 |

Continued, values first:

| IC50 [nM] | SMILES |
| --- | --- |
| 50.1 | CC(C)CN(c1cnc(C2(C(=O)O)CC2)cc1Nc1ccc(Cl)cn1)C1CCOCC1 [Example 25] |
| 50.1 | CC(C)CN(c1ccc(C2(C(=O)NS(C)(=O)=O)CC2)cc1Nc1cnc(C#N)nc1)C1CCOCC1 [Example 23] |
| 5.01 | CC(C)CN(c1ccc(C2(C(=O)NS(C)(=O)=O)CC2)cc1Nc1nnc(C2CC2)s1)C1CCOCC1 [Example 19, 1-(3-((5-cyclopropyl-1,3,4-thiadiazol-2-yl)amino)-4-(isobutyl(tetrahydro-2H-pyran-4-yl)amino)phenyl)-N-(methylsulfonyl)cyclopropane-1-carboxamide] |
| > 10000 | CC(C)CN(c1ccc(C2(C(=O)NS(C)(=O)=O)CC2)cc1Nc1cnc(C(N)=O)nc1)C1CCOCC1 [Example 22] |
| 15.8 | CC(C)CN(c1ccc(C2(C(=O)O)CC2)cc1Nc1nnc(C2CC2)s1)C1CCOCC1 [Example 14, 1-(3-((5-cyclopropyl-1,3,4-thiadiazol-2-yl)amino)-4-(isobutyl(tetrahydro-2H-pyran-4-yl)amino)phenyl)cyclopropane-1-carboxylic acid] |
| 3.16 | CC(C)CN(c1ccc(C(C)(C)C(=O)NS(C)(=O)=O)nc1Nc1ccc(Cl)cn1)C1CCOCC1 [Example 18, 2-(6-((5-chloropyridin-2-yl)amino)-5-(isobutyl(tetrahydro-2H-pyran-4-yl)amino)pyridin-2-yl)-2-methyl-N-(methylsulfonyl)propanamide] |
| 39.8 | COCc1ccc(Nc2cc(C3(C(=O)NS(C)(=O)=O)CC3)ccc2N(CC(C)C)C2CCOCC2)cn1 [Example 21, 1-(4-(isobutyl(tetrahydro-2H-pyran-4-yl)amino)-3-((6-(methoxymethyl)pyridin-3-yl)amino)phenyl)-N-(methylsulfonyl)cyclopropane-1-carboxamide] |
| 12.6 | CC(C)CN(CC(C)C)c1ccc(C(C)(C)C(=O)O)cc1Nc1nc(C(F)(F)F)ns1 [Example 13, 2-(4-(diisobutylamino)-3-((3-(trifluoromethyl)-1,2,4-thiadiazol-5-yl)amino)phenyl)-2-methylpropanoic acid] |
| 6.31 | CC(C)CN(c1ccc(C(C)(C)C(=O)O)nc1Nc1ccc(Cl)cn1)C1CCOCC1 [Example 17, 2-(6-((5-chloropyridin-2-yl)amino)-5-(isobutyl(tetrahydro-2H-pyran-4-yl)amino)pyridin-2-yl)-2-methylpropanoic acid] |
| 12.6 | COc1ncc(Nc2cc(C3(C(=O)NS(C)(=O)=O)CC3)ccc2N(CC(C)C)C2CCOCC2)cn1 [Example 20, 1-(4-(isobutyl(tetrahydro-2H-pyran-4-yl)amino)-3-((2-methoxypyrimidin-5-yl)amino)phenyl)-N-(methylsulfonyl)cyclopropane-1-carboxamide] |
| 31.6 | CC(C)CN(c1ncc(C2(C(=O)NS(=O)(=O)C(F)(F)F)CC2)cc1Nc1ccc(Cl)cn1)C1CCOCC1 [Example 11, 1-(5-((5-chloropyridin-2-yl)amino)-6-(isobutyl(tetrahydro-2H-pyran-4-yl)amino)pyridin-3-yl)-N-((trifluoromethyl)sulfonyl)cyclopropane-1-carboxamide] |
| 25.1 | CC(C)CN(CC(C)C)c1ccc(C(C)(C)C(=O)O)cc1Nc1ccc(Cl)cn1 [Example 12, 2-(3-((5-chloropyridin-2-yl)amino)-4-(diisobutylamino)phenyl)-2-methylpropanoic acid] |
